{"source": "paper PMC6588697", "about": "“Lugdunin amplifies innate immune responses in the skin in synergy with host- and microbiota-derived factors” (Nature Communications, 2019)", "key": {"[1]": {"system": "PHKs", "test": "Viability assay (MUH) in PHKs", "type": "cell-based, human", "method": "Effects of the used peptides on keratinocytes, PBMCs, and nasal and tracheal epithelial cell viability were tested using 4-methylumbelliferyl heptanoate (MUH). Briefly, cells were treated with peptides and respective peptide combinations for 24 h, followed by incubation with 100 μg/mL MUH (Sigma-Aldrich) in PBS for 1 h at 37 °C. The absolute fluorescence intensity at λex of 355 nm and λem of 460 nm was measured using a Fluoroskan II (Labsystems).\n10 a: PHKs were treated with increasing concentrations of lugdunin for 24 hours and 11 subsequently expression of CAMP (LL-37) was analyzed and normalized to actin. […]\n14 b+c: PHKs were treated with increasing concentrations of lugdunin for 24 hours and 15 subsequently the concentration of LL-37 and CXCL8 in the supernatant was analyzed . […]\n18 d: Representative hematoxylin-eosin-stained paraffin-embedded human 3D skin 19 equivalent. […] After 24 hours, the concentration of LL-37 and CXCL8 in the 21 supernatant was analyzed. […] Significant differences to control treatments were analyzed 23 by an unpaired two-tailed t-test (*P<0.05). […]\n26 f: PHKs were treated with 2 µM natural lugdunin, synthetic lugdunin, N -Acetyl lugdunin 27 (grey bars) or 100 ng/mL Pam2Cys or Pam3Cys (white bars) as positive control for 5 28 hours and subsequently expression of CXCL8 was analyzed and normalized to actin. […]"}, "[2]": {"system": "mouse skin", "test": "Immunohistochemistry of mouse skin sections (LL-37, MIP-2, MPO)", "type": "in vivo", "method": "For immunohistochemical stainings of mouse skin, […] tissue sections were de-paraffinized. For MPO staining, antigen retrieval was performed in EDTA buffer at pH 9 (Thermo Fisher Scientific) for 5 min, and for MIP-2 and LL-37, citrate buffer at pH 6 for 9 min was used. Antigen retrieval was performed in a pressure cooker before a slow cooling down of the samples in the buffer. Afterwards, tissue sections were washed in PBS and blocked in 5% donkey serum in PBS containing 0.05% Triton X-100 for 90 min. For MPO staining, tissue sections were subsequently incubated overnight at 4 °C in a humid chamber with a MPO-specific antibody (R&D Systems, Cat#AF3667) diluted 1:50 in a blocking buffer. For MIP-2 and LL-37 staining, tissue sections were first incubated with primary enhancer (Lab Vision™ UltraVision™ LP Detection System, Thermo Fisher Scientific) for 20 min at room temperature, washed, and then incubated with AP polymer (Lab Vision™ UltraVision™ LP Detection System, Thermo Fisher Scientific) for 30 min at room temperature in a humid chamber, followed by incubation with the primary antibodies MIP-2 (Thermo Scientific, Cat#701126, 1:10 in blocking buffer) and LL-37 (Novus Biologicals, Cat#NB100-98689, 1:200 in blocking buffer) overnight at 4 °C in a humid chamber. The next day, tissue sections were washed and incubated with a 1:250 dilution of alkaline phosphatase-coupled secondary antibody (Novus Biologicals) for 90 min in a humid chamber at room temperature. After washing in PBS, staining was performed by using the Lab Vision^TM liquid fast red substrate system (Thermo Fisher Scientific) according to the manufacturer’s instructions. After washing in water, hematoxylin–eosin staining (Agilent/Dako) was performed for 2 min. After another washing step in water, tissue sections were mounted with Kaiser’s glycerol gelatine (Merck)."}}}
{"substance": "Lugdunin", "values": [{"measurement": "toxicity to the cell types analyzed (in words)", "setting": "[1]", "value": "not toxic"}, {"measurement": "MPO-positive cells in mouse skin sections (IHC, in words)", "setting": "[2]; epicutaneous application, Fig 3e", "value": "recruitment of MPO-positive cells into the dermis"}, {"measurement": "LL-37 in mouse skin sections (IHC, in words)", "setting": "[2]; epicutaneous application, Supp Fig 1", "value": "expression of LL-37 in keratinocytes was confirmed"}, {"measurement": "MIP-2 in mouse skin sections (IHC, in words)", "setting": "[2]; epicutaneous treatment, Fig 2f", "value": "MIP-2 production by keratinocytes in the epidermis and the hair follicles"}]}
